ChEMBL document CHEMBL4184210, “Optimization of novel monobactams with activity against carbapenem-resistant Enterobacteriaceae - Identification of LYS228” (Bioorg Med Chem Lett, 2018)

Experiments:
[1] = Volume of distribution in rat at 10 mg/kg, iv; type: ADME, organism-based; details: in vivo
[2] = Half life in mouse at 10 mg/kg, iv; type: ADME, organism-based; details: in vivo
[3] = Half life in dog at 10 mg/kg, iv; type: ADME, organism-based, Canis lupus familiaris; details: in vivo
[4] = AUC in dog at 10 mg/kg, iv; type: ADME, organism-based, Canis lupus familiaris; details: in vivo
[5] = Drug excretion in rat assessed as unchanged parent drug level at 10 mg/kg, iv; type: ADME, organism-based; details: in vivo, read-out: Drug excretion
[6] = Drug excretion in dog assessed as unchanged parent drug level at 10 mg/kg, iv; type: ADME, organism-based, Canis lupus familiaris; details: in vivo, read-out: Drug excretion
[7] = Clearance in mouse at 10 mg/kg, iv; type: ADME, organism-based; details: in vivo
[8] = Clearance in rat at 10 mg/kg, iv; type: ADME, organism-based; details: in vivo
[9] = Clearance in dog at 10 mg/kg, iv; type: ADME, organism-based, Canis lupus familiaris; details: in vivo
Klebsiella pneumoniae = assay: Antimicrobial activity against Klebsiella pneumoniae expressing beta-lactamase NDM-1 infected in neutropenic mouse thigh infection model assessed as compound dose causing 1 log10 CFU reduction in bacterial load dosed subcutaneously every 4 hrs; type: functional
in vitro [10] = details: mouse, plasma
Description: Protein binding in mouse plasma

in vitro [11] = details: rat, plasma
Description: Protein binding in rat plasma

Work on Nc1nc(/C(=N/OC2(C(=O)O)CC2)C(=O)N[C@@H]2C(=O)N(S(=O)(=O)O)[C@@H]2CN2CCOC2=O)cs1 (stereo in doubt) [ANCREMONAM] yielded a Vd [1] of 0.3 L/kg, a half-life [2] of 18 min and a half-life [3] of 48 min. The AUC [4] was 13000 ng·h/mL, the dose excreted [5] was 30% and the dose excreted [6] was 34%. It also gave a clearance [7] of 16 mL/min/kg, a clearance [8] of 9 mL/min/kg and a clearance [9] of 4 mL/min/kg. It also gave an Activity (Klebsiella pneumoniae) of 1590 mg/kg/day, a fraction unbound (in vitro [10]) of 0.74 and a fraction unbound (in vitro [11]) of 0.53.
